This note sets out measurements from patent US4284633A, “Derivatives of xanthine” (Boehringer Mannheim GmbH, priority 1979, dated 1981).

Molecules are shown by their SMILES.

The test system of this assay is antigen induced bronchospasm. Description: inhibition of antigen induced bronchospasm in passively sensitized guinea pigs. It is filed as in vivo, guinea pig. The note with it: 5 minutes before antigen, evaluated 3 minutes after antigen. The protocol:
Specifically, tests were run as follows:
The antigen is twice recrystallized egg albumin.
The animals were bled and the pooled serum stored at -20° C.
Injections of 0.5 ml antiserum of 1:50 dilution were given i.v. 24-48 h before challenge.
Guinea pigs were anaesthetized with pentobarbital sodium (40 mg/kg i.p.). Cannulae were tied into the trachea and the jugular vein and the lung inflated with a pump at a rate of 72 strokes/min and a constant stroke volume of 6-8 ml.
Bronchospasm, provoked by injecting ovalbumin i.v. was measured as described by Konzett, H. and R. Rossler, "Versuchsanordnung und Untersuchungen an der Bronchialmuskulatur" Naunyn-Schmiedebergs, Arch. exp. Path. Pharmak.
The drugs were applied intravenously 5 minutes before the antigen.
For calculation the following formula was used: [formula] b=Bronchospasm after antigen injection, measured in mm from tracing m=maximum height of tracing in mm with arm of the treachea-cannula clamped
a=pre injection height of the tracing in mm

Regarding `CC(=O)NC1CCN(CCCn2cnc3c2c(=O)n(C)c(=O)n3C)CC1` [Example 2c, 7-[3-(4-acetamidopiperidino)-propyl]-theophylline], the “% inhibition Br Sp (antigen induced bronchospasm)” value (shortened to “% inhibition Br Sp”) (0.38 mg/kg i.v.) amounted to 37%.
Regarding `Cn1c(=O)c2[nH]cnc2n(C)c1=O` [Aminophylline, reference compound], for the setting “24 mg/kg i.v.”, the “% inhibition Br Sp” value stood at 29%.
As for `Cn1c(=O)c2c(ncn2CCCN2CCC(NC(=O)c3cccs3)CC2)n(C)c1=O` [Example 4d, 7-{3-[4-(thiophene-2-carboxamido)-piperidino]-propyl}-theophylline], the “% inhibition Br Sp” value (0.1 mg/kg i.v.) was 38%.
Same read-out and setting: then `Cc1ccccc1C(=O)NC1CCN(CCCn2cnc3c2c(=O)n(C)c(=O)n3C)CC1` [Example 2d, 7-{3-[4-(2-methylbenzamido)-piperidino]-propyl}-theophylline], with 60%; and `Cn1c(=O)c2c(ncn2CCCN2CCC(NC(=O)c3ccccc3O)CC2)n(C)c1=O` [Example 4a, 7-{3-[4-(2-hydroxybenzamido)-piperidino]-propyl}-theophylline], with 82%.
`Cn1c(=O)c2c(ncn2CCCN2CCC(NC(=O)Cc3ccccc3)CC2)n(C)c1=O` [Example 2e, 7-[3-(4-phenylacetamidopiperidino)-propyl]-theophylline]: the “% inhibition Br Sp” value (0.38 mg/kg i.v.) is 68%.
